Active and inactive are the calls of the source.
Tests used:
[1] = target: T1, Short transient receptor potential channel 4 (Mus musculus, UniProt Q9QUQ5); experiment: calcium entry via TRPC4 opening agents – cell-based, HEK293 TRPC4/mu-opioid, Fluo-4 calcium, dose response (AID 434937); assay type: functional
T1 sequence (Q9QUQ5 whole entry): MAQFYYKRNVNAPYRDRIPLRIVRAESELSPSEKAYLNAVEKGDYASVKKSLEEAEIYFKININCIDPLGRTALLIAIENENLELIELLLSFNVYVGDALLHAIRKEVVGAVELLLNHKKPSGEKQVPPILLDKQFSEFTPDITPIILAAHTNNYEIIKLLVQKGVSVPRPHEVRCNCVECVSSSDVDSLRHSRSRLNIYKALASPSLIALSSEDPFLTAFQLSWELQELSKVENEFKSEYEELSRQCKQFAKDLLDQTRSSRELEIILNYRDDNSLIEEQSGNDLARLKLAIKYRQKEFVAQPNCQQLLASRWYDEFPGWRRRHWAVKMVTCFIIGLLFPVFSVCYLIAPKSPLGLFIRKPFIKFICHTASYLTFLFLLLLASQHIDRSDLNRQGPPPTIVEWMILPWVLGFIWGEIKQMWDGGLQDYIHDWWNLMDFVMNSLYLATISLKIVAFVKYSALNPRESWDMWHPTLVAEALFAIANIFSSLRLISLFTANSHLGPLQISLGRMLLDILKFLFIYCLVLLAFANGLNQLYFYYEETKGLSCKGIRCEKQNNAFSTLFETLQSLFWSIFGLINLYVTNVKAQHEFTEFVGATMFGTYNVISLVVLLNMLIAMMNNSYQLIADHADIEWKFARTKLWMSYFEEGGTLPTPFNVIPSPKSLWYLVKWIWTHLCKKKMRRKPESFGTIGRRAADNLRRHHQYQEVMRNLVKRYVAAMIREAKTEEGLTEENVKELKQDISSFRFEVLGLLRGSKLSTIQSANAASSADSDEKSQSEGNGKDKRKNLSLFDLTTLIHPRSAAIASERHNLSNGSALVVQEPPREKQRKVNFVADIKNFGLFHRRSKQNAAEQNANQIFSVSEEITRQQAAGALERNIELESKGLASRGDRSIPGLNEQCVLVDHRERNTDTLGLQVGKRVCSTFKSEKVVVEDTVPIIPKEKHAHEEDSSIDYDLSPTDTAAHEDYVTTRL

Cytochrome P450 3A4 = Cytochrome P450 3A4 (Homo sapiens, UniProt P08684);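 further: CYP3A4 tested as one member of a cytochrome P450 panel screen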
Cytochrome P450 3A4, sequence (P08684 whole entry): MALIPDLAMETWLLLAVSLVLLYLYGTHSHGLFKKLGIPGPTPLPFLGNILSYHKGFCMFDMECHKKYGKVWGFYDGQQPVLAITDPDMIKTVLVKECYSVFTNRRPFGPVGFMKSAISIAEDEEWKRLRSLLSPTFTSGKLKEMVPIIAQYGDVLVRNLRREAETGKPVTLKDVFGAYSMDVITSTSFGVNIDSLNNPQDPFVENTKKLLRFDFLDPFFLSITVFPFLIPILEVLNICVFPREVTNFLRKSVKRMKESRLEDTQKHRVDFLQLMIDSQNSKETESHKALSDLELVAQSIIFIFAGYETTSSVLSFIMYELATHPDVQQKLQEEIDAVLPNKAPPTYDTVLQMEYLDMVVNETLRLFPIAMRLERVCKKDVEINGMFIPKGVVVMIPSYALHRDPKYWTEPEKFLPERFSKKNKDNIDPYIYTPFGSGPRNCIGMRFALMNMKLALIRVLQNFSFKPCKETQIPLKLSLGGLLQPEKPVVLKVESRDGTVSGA

SUMO-activating enzyme = SUMO-activating enzyme (Homo sapiens, UniProt Q9UBT2); experiment: blockers of UBC9-mediated SUMO conjugation – biochemical, AlphaScreen, SUMOylation inhibitor project, confirmation (AID 2018); assay type: functional
Estrogen receptor = target: T2, Estrogen receptor (Homo sapiens, UniProt P03372);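 further: potency for inhibiting coactivator peptide recruitment to the receptor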
T2 sequence (P03372 whole entry): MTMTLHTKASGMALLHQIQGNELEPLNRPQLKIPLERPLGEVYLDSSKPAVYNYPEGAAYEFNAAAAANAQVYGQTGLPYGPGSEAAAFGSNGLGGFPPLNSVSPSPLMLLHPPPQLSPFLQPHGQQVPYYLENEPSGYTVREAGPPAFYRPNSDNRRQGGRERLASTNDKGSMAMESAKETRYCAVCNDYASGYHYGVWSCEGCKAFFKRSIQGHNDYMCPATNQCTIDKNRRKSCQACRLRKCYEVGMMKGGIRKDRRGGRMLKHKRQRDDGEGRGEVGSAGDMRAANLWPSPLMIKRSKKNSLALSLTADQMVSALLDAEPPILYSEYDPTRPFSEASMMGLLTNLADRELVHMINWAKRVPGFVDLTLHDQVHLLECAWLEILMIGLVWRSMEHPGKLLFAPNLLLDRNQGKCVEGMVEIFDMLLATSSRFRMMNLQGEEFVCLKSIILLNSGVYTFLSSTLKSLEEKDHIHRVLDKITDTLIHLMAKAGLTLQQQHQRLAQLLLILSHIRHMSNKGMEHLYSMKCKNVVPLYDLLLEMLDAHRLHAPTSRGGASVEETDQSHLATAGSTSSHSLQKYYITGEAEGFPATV

[2] = viability loss of HPDE-C7K cells – cell-based, fluorescence, HTS, primary screen (AID 431); assay type: functional; details: Homo sapiens
[3] = target: Peroxisome proliferator-activated receptor gamma/Nuclear receptor coactivator 2 (Homo sapiens, UniProt P37231); experiment: (§1) TR-FRET dose response biochemical High Throughput Screening assay for agonists of the steroid receptor coactivator 2 (SRC-2) recruitment by the peroxisome proliferator-activated receptor gamma (PPAR gamma): non-selective agonists. [Related pubchem assays: 1297, 1032 ]; assay type: functional
Peroxisome proliferator-activated receptor gamma/Nuclear receptor coactivator 2, sequence (P37231 whole entry): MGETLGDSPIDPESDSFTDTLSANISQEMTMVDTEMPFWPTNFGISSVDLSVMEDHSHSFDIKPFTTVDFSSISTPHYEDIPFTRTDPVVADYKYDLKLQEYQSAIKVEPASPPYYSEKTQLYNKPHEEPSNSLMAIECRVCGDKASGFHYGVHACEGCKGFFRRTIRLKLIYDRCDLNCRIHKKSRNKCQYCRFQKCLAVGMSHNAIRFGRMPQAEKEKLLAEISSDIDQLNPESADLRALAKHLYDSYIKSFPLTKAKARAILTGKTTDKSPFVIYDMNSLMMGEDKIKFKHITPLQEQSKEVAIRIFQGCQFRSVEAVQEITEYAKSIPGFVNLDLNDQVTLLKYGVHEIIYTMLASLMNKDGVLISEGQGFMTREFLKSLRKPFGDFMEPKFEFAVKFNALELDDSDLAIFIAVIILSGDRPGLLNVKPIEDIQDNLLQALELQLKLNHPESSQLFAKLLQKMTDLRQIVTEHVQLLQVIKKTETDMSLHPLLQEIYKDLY
Peroxisome proliferator-activated receptor gamma/Nuclear receptor coactivator 2, sequence (Q15596 whole entry, further chain): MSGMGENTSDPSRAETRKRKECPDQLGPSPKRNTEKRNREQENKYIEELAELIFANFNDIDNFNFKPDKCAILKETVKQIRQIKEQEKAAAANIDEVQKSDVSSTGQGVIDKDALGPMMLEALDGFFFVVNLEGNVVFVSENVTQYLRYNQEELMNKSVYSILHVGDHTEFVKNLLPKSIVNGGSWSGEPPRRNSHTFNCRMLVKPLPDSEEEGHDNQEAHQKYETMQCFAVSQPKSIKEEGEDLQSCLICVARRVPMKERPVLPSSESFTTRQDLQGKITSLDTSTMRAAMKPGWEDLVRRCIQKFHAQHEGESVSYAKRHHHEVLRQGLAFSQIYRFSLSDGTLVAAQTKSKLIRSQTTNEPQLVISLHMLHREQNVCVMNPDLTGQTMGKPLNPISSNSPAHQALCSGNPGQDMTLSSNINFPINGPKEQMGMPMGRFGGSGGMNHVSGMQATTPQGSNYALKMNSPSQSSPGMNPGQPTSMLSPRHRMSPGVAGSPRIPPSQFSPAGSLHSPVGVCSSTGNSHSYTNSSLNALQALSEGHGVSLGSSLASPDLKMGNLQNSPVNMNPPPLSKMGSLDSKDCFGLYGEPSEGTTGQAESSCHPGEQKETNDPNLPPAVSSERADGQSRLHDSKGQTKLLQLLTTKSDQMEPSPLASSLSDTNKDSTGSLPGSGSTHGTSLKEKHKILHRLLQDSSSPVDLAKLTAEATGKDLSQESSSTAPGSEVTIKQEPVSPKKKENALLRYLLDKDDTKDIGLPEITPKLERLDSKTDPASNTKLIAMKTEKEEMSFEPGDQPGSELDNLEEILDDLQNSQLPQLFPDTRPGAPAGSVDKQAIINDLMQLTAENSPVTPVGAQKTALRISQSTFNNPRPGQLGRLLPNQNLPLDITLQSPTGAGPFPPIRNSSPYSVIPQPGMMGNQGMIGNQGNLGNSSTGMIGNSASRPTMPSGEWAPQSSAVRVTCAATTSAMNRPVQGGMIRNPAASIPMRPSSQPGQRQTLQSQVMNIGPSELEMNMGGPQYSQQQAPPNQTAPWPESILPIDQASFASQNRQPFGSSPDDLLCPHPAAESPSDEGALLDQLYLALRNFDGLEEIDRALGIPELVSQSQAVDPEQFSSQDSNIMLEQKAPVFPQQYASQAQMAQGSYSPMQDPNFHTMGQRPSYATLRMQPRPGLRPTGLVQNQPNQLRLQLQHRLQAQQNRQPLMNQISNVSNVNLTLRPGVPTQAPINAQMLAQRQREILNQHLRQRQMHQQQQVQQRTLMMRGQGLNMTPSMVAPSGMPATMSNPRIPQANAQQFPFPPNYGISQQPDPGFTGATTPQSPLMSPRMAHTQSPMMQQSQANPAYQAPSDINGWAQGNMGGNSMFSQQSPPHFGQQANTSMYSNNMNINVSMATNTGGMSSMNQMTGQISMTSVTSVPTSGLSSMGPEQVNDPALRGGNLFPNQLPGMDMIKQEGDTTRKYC

[4] = target: Peroxisome proliferator-activated receptor gamma/Nuclear receptor coactivator 1 (Homo sapiens, UniProt P37231); experiment: as §1, with “1 (SRC-1)” for “2 (SRC-2)”, “assays (depositor defined):AID1300, AID1808, AID504735, AID631]” for “assays: 1297, 1032 ]”; assay type: protein assay
Peroxisome proliferator-activated receptor gamma/Nuclear receptor coactivator 1, sequence (P37231 whole entry): as the sequence (P37231 whole entry) above
Peroxisome proliferator-activated receptor gamma/Nuclear receptor coactivator 1, sequence (Q15788 whole entry, further chain): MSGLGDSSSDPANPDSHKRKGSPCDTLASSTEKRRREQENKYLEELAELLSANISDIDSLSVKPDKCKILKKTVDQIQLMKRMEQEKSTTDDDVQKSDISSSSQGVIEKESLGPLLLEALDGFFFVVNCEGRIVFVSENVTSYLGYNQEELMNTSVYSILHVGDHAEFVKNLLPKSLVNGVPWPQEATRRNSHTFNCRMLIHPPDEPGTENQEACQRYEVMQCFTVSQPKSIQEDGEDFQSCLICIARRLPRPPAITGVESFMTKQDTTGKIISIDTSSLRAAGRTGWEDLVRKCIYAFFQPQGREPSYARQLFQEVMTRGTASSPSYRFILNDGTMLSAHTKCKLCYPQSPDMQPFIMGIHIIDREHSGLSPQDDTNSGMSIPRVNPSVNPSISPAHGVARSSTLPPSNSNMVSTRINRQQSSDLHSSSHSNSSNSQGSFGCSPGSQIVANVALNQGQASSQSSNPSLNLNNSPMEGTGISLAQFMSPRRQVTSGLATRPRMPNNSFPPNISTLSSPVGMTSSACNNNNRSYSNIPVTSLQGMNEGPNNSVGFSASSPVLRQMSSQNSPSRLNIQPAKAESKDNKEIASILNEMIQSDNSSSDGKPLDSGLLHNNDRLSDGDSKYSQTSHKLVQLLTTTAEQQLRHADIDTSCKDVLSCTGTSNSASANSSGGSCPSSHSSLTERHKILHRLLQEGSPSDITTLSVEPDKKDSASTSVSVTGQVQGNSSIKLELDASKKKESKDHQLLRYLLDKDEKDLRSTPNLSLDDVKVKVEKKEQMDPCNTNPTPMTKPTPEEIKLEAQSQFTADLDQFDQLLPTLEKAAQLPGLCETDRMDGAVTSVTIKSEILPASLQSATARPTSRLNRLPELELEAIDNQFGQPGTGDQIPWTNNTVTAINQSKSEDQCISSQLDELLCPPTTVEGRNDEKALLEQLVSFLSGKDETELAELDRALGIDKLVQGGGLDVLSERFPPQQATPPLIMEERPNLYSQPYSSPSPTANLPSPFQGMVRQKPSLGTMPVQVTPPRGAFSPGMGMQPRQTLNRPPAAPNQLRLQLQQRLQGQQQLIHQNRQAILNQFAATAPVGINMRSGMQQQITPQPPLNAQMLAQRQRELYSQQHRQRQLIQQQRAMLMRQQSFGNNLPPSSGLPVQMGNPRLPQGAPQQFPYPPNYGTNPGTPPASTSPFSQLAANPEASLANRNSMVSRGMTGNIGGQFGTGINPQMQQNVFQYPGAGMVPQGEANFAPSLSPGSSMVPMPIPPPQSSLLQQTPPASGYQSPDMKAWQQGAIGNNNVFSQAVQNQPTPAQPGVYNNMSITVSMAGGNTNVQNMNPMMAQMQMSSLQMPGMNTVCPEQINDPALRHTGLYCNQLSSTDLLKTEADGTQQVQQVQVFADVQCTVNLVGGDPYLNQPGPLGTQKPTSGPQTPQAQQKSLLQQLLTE

[5] = target: Peroxisome proliferator-activated receptor gamma/Nuclear receptor coactivator 3 (Homo sapiens, UniProt P37231); experiment: as §1, with “3 (SRC-3)” for “2 (SRC-2)”, “1301 (Confirmation screen.), 1048 (Primary screen.)]” for “1297, 1032 ]”; assay type: functional
[6] = HPDE-C7 pancreatic duct cell viability loss – fluorescence, HTS (AID 430); assay type: functional, cell-based; details: Homo sapiens
[7] = NIH3T3 cell viability loss – ATP luminescence, mouse fibroblasts, counter-screen, dose response (AID 2010); assay type: functional, cell-based;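 further: cells exposed to compound for about 90 hours before reading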
[8] = non-specific 3'UTR reporter inhibition in Clone20-Shn3RL – cell-based, Renilla luciferase, cherry-picked, counter-screen for Shn3 inhibitor project, dose response (AID 624133); assay type: functional
INS1 = experiment: INS-1E survival protection against cytokine death – cell-based, luminescence, retest, dose response (AID 449756); assay type: functional; details: Rattus norvegicus;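 further: cell death triggered by IL-1 beta plus TNF-alpha plus IFN-gamma mixture; protective hits raise ATP signal compared with cytokine alone wells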
cells [9] = assay type: functional, cell-based
[10] = Trypanosoma cruzi growth suppression in host cells – NIH3T3 host cells, beta-gal luminescence, confirmation (AID 2044); assay type: functional, cell-based;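 further: intracellular parasites grown in NIH/3T3 mouse fibroblasts as host cells; luminescent beta-galactosidase reporter signal from transgenic T. cruzi replicating inside host cells; inhibitors lower the luminescence signal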
[11] = loss of viability in HepG2 cells – cell-based, CellTiter-Glo, cherry-picked, cytotoxicity control for Shn3 inhibitor project, dose response (AID 624134); assay type: functional
Vero = experiment: cells; assay type: functional; details: Chlorocebus sabaeus
[12] = reduction of Shn3 3'UTR-driven luciferase in osteoblasts – cell-based, Clone20 osteoblasts, firefly luciferase, cherry-picked, dose response (AID 624132); assay type: functional;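 further: firefly luciferase luminescence from reporter carrying the Shn3 3'UTR in osteoblasts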
Exodeoxyribonuclease V = target: T3, Exodeoxyribonuclease V (Escherichia coli (strain K12), UniProt P04993+P07648+P08394); experiment: RecBCD inhibition via phage-restricted bacterial growth – absorbance, V66 E. coli, mutant T4 phage, counter-screen for AddAB inhibitor project, dose response (AID 492957); assay type: functional, cell-based, Escherichia coli str. K-12 substr. MG1655
T3 sequence (P04993 whole entry): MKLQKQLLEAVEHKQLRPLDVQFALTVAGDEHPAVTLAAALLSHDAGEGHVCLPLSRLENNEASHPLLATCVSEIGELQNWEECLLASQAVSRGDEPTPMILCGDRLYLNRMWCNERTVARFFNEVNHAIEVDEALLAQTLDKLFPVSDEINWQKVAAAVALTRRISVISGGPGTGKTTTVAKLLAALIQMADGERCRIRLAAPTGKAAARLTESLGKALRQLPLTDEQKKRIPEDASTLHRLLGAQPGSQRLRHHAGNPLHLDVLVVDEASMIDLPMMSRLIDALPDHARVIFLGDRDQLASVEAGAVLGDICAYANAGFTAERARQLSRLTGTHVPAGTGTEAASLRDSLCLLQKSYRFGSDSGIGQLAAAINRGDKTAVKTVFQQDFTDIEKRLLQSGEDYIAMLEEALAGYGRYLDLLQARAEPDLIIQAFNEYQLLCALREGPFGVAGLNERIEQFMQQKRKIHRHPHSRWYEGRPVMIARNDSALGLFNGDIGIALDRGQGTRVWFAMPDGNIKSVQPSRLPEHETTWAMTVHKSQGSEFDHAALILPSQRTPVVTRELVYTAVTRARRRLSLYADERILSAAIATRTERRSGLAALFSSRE
T3 sequence (P07648 whole entry): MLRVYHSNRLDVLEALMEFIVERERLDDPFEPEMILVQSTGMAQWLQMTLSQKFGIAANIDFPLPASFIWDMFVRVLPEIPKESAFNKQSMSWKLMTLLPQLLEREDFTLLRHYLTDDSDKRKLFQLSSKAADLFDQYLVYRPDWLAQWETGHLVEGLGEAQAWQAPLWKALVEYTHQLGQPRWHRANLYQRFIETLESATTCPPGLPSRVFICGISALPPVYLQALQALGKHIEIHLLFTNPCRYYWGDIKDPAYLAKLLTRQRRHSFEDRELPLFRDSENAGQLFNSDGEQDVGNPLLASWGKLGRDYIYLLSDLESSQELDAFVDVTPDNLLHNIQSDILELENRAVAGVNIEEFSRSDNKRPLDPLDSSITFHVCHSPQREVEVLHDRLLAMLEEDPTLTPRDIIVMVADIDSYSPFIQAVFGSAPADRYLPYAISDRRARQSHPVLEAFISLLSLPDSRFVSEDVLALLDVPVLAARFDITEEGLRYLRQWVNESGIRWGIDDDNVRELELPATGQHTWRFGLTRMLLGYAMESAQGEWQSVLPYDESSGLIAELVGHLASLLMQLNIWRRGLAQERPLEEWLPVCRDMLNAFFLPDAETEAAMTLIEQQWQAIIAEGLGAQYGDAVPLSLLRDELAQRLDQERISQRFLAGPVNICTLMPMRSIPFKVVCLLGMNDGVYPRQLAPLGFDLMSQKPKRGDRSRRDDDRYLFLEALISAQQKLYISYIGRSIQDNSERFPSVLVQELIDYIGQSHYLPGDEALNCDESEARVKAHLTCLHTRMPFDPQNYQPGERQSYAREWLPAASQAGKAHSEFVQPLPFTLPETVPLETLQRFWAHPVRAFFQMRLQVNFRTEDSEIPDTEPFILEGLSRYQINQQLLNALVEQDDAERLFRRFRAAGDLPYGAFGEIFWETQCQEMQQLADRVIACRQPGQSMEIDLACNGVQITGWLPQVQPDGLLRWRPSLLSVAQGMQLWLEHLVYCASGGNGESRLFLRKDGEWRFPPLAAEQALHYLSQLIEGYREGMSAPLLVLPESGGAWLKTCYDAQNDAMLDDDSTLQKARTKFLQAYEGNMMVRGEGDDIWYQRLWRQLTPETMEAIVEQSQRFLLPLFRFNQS
T3 sequence (P08394 whole entry): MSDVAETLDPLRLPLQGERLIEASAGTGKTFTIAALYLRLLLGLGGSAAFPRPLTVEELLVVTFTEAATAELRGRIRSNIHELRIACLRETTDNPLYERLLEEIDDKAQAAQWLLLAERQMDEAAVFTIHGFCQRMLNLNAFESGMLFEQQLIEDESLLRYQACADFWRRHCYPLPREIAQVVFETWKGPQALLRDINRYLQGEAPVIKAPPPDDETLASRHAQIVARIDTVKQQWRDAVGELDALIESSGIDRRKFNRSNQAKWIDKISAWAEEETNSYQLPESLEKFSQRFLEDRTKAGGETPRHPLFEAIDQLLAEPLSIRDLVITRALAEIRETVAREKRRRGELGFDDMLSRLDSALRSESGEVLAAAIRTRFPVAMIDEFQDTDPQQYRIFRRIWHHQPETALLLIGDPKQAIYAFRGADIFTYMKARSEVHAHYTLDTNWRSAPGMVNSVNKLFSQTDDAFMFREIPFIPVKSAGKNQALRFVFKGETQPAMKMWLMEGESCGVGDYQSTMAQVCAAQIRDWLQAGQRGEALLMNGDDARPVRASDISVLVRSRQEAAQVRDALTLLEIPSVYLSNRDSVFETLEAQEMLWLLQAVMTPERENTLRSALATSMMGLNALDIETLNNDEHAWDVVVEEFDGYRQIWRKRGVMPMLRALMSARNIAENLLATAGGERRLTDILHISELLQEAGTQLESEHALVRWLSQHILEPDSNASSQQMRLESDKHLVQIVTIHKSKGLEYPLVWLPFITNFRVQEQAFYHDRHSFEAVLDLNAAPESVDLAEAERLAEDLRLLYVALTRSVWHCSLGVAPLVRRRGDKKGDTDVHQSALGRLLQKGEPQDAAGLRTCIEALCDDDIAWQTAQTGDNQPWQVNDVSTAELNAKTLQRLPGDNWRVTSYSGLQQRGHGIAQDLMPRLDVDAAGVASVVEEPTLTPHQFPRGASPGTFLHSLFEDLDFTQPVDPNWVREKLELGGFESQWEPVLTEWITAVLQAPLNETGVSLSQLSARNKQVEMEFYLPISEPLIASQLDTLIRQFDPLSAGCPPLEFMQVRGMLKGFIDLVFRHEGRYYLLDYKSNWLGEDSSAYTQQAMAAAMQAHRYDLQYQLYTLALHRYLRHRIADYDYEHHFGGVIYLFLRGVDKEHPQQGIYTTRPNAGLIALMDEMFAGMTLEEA

[13] = Counterscreen for AddAB inhibitors: absorbance-based bacterial cell-based high throughput dose response assay for inhibitors of bacterial viability. [Related pubchem assays (depositor defined):AID435030, AID449728, AID449731, AID488942, AID488955, AID488956]; assay type: functional
cells [14] = assay type: functional, cell-based; remark: listed apart in the source
[15] = system: Streptococcus sp. 'group A'; experiment: Streptococcus pyogenes SK(-)GAS viability under kanamycin – luminescence, BacTiterGlo, confirmation, counter-screen for streptokinase expression inhibitor project, dose response (AID 1900); assay type: functional, organism-based
Streptococcus = experiment: GAS UMAA2166 growth inhibition – luminescence, BacTiterGlo, counter-screen for streptokinase expression inhibitor project, dose response (AID 1915); assay type: functional, organism-based;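 further: potency for reduction of bacterial viability or growth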

Cc1cccc(C(=O)NC(=S)NNC(=O)c2cccs2)c1
EC50 [1]: 2.99 µM (active)

Cn1c(=O)c(-c2ccc(F)cc2)nc2cnc(Oc3ccccc3)nc21
AC50 (Cytochrome P450 3A4): inconclusive

CCOc1cccc2cc(-c3nnc(NCc4ccco4)s3)c(=O)oc12
IC50 (SUMO-activating enzyme): 45.7 µM (active)
IC50 (Estrogen receptor): 26.8 µM (active)

CCn1c2c(c3cc(Br)ccc31)CCC/C2=N\O
EC50 [2]: 10.8 µM (active)
EC50 [3]: 25.7 µM (not active)
EC50 [4]: > 79.4 µM (inactive)
EC50 [5]: > 79.4 µM (not active)
EC50 [6]: 10.8 µM (active)

COc1ccc2c(c1O)C13CCN(C)C(C2)C1CCC(=O)C3 (stereo not drawn)
EC50 [1]: 0.168 µM (active)

CCCC(=O)NC(c1ccc(Cl)cc1Cl)c1ccc2cccnc2c1O (stereo not drawn)
EC50 [7]: 0.543 µM (active)
AC50 [8]: 3.61 µM (active)
AC50 (INS1): 0.491 µM (active)
EC50 (cells [9]): 7.39 µM (active)
EC50 [10]: 0.102 µM (active)
AC50 [11]: > 70 µM (inactive)
CC50 (Vero): 1.15 µM (active)
AC50 [12]: 0.638 µM (active)
IC50 (Exodeoxyribonuclease V): > 119 µM (inactive)
IC50 [13]: > 119 µM (inactive)
EC50 (cells [14]): > 350 µM (not active)
EC50 [15]: 1.01 µM (active)
EC50 (Streptococcus): 7.38 µM (active)

Reference: ChEMBL document CHEMBL1201862, “PubChem BioAssay data set” (2004)
